The record followed here is patent US10517842B2, “Methods of modulating miRNA levels and compositions for use in the same” (Los Angeles Biomedical Research Institute at Harbor-UCLA …, priority 2017, dated 2019).

Assay [1] deals with NF-kB. The experiment in a line: NF-kB luciferase reporter assay in LSMC. It counts as cell-based, human. The conditions noted are these: Tranilast 200 μM, 48 hrs, vs DMSO set as 1. How it is done:
The ratio of Firefly:Renilla was determined after treatment of Tranilast (200 μM) for 48 hrs and reported as relative luciferase activity as compared to DMSO which was independently set as 1. FIG. 13B: Graphical depiction of the NF-Kb (p65) binding elements in the miR-200c promoter. […] The results are presented as mean±SEM of at least three independent experiments using LSMC isolated from 3 patients.

Assay [2] concerns 3′UTR fragment of IL8. The experiment in a line: 3′UTR luciferase reporter assay in LSMC. It counts as cell-based, human. The conditions noted are these: Tranilast 200 μM vs DMSO. As for the experimental part:
FIG. 10A: The relative luciferase activity in LSMC treated with Tranilast (200 μM) or DMSO as control for 48 hrs prior to transfection with Renilla and Firefly luciferase reporter plasmids carrying a 3′UTR fragment of COL3A1, CDK2 or IL8 and incubated with Tranilast (200 μM) or DMSO containing medium after transfection for another 48 hrs. The relative luciferase activity is presented as the ratio of Firefly:Renilla as compared to DMSO which was independently set as 1. The results are presented as mean±SEM of at least three sets of independent experiments using LSMC isolated from 3 patients. FIG. 10B: Protein expression of COL3A1 and CDK2 was determined after transfection of anti-miR scrambled oligonucleotides (aNC) or anti-miR-29c oligonucleotides (a29c) in LSMC for 72 hrs with DMSO or Tranilast (200 μM) treatment for the last 48 hrs. GAPDH was used as loading control. The result is one representative of at least three sets of independent experiments using LSMC isolated from 3 patients. FIG. 10C: The bar graph presented the relative band densities as mean±SEM of at least three independent experiments. Inhibition of protein expression by Tranilast treatment was calculated relative to changes in corresponding DMSO controls in cells transfected with aNC or anti-miR-29c.

On to `COc1ccc(C=CC(=O)Nc2ccccc2C(=O)O)cc1OC` [Tranilast, 2-[[3-(3,4-dimethoxyphenyl)-1-oxo-2-propenyl]amino]benzoic acid], for which, in assay [1], the “NF-kB signaling (NF-kB luciferase reporter activity)” value is “Blockade”. The “expression of IL8 (heading to FIG. 10A, 3′UTR reporter)” value in assay [2] is “Down-regulated”.
